What all share (test): growth of human tumour cells (NCI), 48 h
For assay [1], the system named is 786-0 renal.
The test system of assay [2] is A498 renal.
The test system of assay [3] is EKVX NSCLC.
Assay [4] deals with IGROV1 ovarian.
The subject of assay [5] is NCI-H460 lung.
In assay [6] the test system is NCI-H522 lung.
In assay [7] the test system is SF-539 CNS.
For assay [8], the system named is SK-MEL-5 melanoma.
For assay [9], the system named is SNB-75 CNS.
Assay [10] concerns U251 CNS.

This note sets out measurements from PubChem BioAssay (NCI).

SMILES strings stand for the structures. “And” between values parts separate entries of the source, which are not always exact repeats. Equal entries are not always repeated.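 96-well plates; 48 h exposure; 5 concentrations. Endpoints by linear interpolation between flanking doses. Not reached: highest tested concentration assigned. At the GI50, growth is halved. TGI marks complete inhibition of growth.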

In the case of `C=C1C(C)C2C(Cc3ccccc3)NC(=O)C23C(OC(C)=O)C=CC(C)(O)C(=O)C(C)C/C=C/C3C1O` (stereo not given), the GI50 in [1] was 2050 nM; in [2], 202 nM and 50 nM; in assay [4] it was 790 nM; in [5] it was 291 nM; in assay [7], 208 nM; in assay [8], 2170 nM. The GI50 in assay [9] was 21.8 nM and 50 nM. Also, the TGI in [1] was 56200 nM and > 120000 nM; in assay [2], 1470 nM and 13900 nM; in assay [3], > 95500 nM and 30000 nM; in [5], above 295000 nM; in assay [6], 27300 nM and 36400 nM; in assay [7] it was 2770 nM and 1220 nM. For the same compound, the TGI in [10] was 5470 nM and 53200 nM.

`COc1cc(F)c(F)c(Nc2ccc(I)cc2F)c1NS(=O)(=O)C1(CC(O)CO)CC1` (stereo not given): the GI50 in assay [1] was 16800 nM; in [2] it was 10100 nM; in assay [3] it was 13400 nM; in assay [4], 10400 nM; in [5], 13900 nM; in assay [6], 11500 nM. The GI50 in assay [7] was 15800 nM; in assay [8] it was 8120 nM; in [9] it was 6290 nM; in [10], 15200 nM. Moreover, the TGI turned out to be 38700 nM in [1]; 28100 nM in assay [2]; 57200 nM in [3]; 34400 nM in [4]; 33200 nM in [5]; 29900 nM in assay [6]. Moreover, the TGI in assay [7] was found to be 33800 nM; in assay [8], 21900 nM; in assay [9], 49200 nM; in assay [10], 39900 nM.

On to `O=C(/C=C/c1ccco1)Nc1ncc(Cc2cc(Cl)ccc2Cl)s1`, for which the GI50 in assay [1] is 69.9 nM; in assay [2], 24.5 nM; in assay [3], 161 nM; in [4] it was 80.7 nM; in [5], 39.2 nM; in [6], 36.4 nM. In addition, the GI50 in [7] was 37.3 nM; in assay [8], 44.1 nM; in [9] it was 26.1 nM; in assay [10] it was 42.6 nM. Also, the TGI in assay [1] is above 100000 nM; in assay [2] it was 3960 nM; in assay [3] it was above 100000 nM; in assay [4] it was above 100000 nM; in assay [5] it was above 100000 nM; in [7], 191 nM. Moreover, the TGI in assay [8] was above 64800 nM; in assay [9], 433 nM; in assay [10], above 100000 nM.

For the compound `CCCCCn1sc(=O)n(Cc2ccc(CNC(=O)C(C)c3ccc(CC(C)C)cc3)cc2)c1=O` (stereo not given), the GI50 in assay [1] was 747 nM; in assay [2], 1460 nM; in [3], 1410 nM; in [4], 645 nM; in [5], 1460 nM; in assay [6], 162 nM. For the same compound, the GI50 in [7] was 1190 nM; in assay [8], 1610 nM; in assay [9], 431 nM; in [10], 1560 nM. The TGI in assay [1] was 2060 nM; in assay [2], 2810 nM; in assay [3], 2820 nM; in assay [4], 2000 nM; in assay [5] it was 3070 nM; in [6], 2110 nM. In addition, the TGI is 2440 nM in assay [7], 2960 nM in assay [8], 1860 nM in assay [9] and 3040 nM in assay [10].

Regarding `COc1cc2c3c(c4cc(OC)c(OC)cc4c2cc1OC)CN1CCC[C@H]1C3`, the GI50 in assay [1] is 41.7 nM and 10.3 nM; in assay [3], 21.6 nM and < 10 nM; in assay [4], 43.3 nM and < 10 nM; in assay [5], 30 nM and < 10 nM; in assay [7] it was 56.4 nM and 15.7 nM; in assay [8], 60.7 nM and < 10 nM. In addition, the GI50 is 8.4 nM in [9]; 22.1 nM and < 10 nM in [10]. The TGI in assay [1] was > 10000 nM and 2460 nM; in assay [2], 36.8 nM; in assay [3] it was 285 nM and 284 nM; in assay [4], 1450 nM and 1420 nM; in assay [5] it was 1130 nM and 825 nM; in [6] it was 1010 nM and 540 nM. In addition, the TGI is 2940 nM and 1120 nM in assay [7]; 66.3 nM in assay [9]; 331 nM in assay [10].

On to `CC[C@H](C)[C@H](NC(=O)CN(C)C)C(=O)N(C)[C@H](C[C@@H](OC(C)=O)c1nc(C(=O)NC23C4C5C2C2C3C4C52C(=O)OC)cs1)C(C)C` (stereo not given in full), for which the GI50 in assay [1] is 790 nM; in [2], 993 nM; in [3] it was 2540 nM; in assay [4], 428 nM; in [5] it was 814 nM; in [6], 110 nM. Moreover, the GI50 in [7] was 462 nM; in assay [8] it was 299 nM; in assay [9], 119 nM; in [10], 800 nM. For the same compound, the TGI in [1] is above 33200 nM; in assay [2], 21500 nM; in assay [3], above 33200 nM; in [4], above 33200 nM; in assay [5], above 33200 nM; in assay [6] it was above 10800 nM. Also, the TGI in assay [7] was above 14100 nM; in assay [8], 6750 nM; in [9], above 33200 nM; in assay [10], above 33200 nM.
